Among the data in US20140256663A1, “Amphotericin Analogous Compounds and Pharmaceutical Compositions Containing Them” (CENTRO DE INVESTIGACION Y DE ESTUDIOS AVANZADOS DEL …, priority 2010, published 2014) are IC50 values, retold here.

The test system of this assay is Candida albicans ATCC 10231. The experiment in a line: Antifungal activity in vitro by flow cytometry, Candida albicans ATCC 10231. It counts as cell-based. The following applies: ATCC10231, 24 h at 37° C., read-out: CF50 Candida albicans ATCC 10231. How it is done:
The antifungal activity of the polyene macrolide derivate of the present invention was determined by flow cytometry method earlier described (Pinto et al., J. Medical Microbiology, 2009; 58, 1454-1462; Pina-Vaz and Rodriguez, Methods Mol. Biol. 2010; 638:281-289). For the test two strains of Candida albicans (ATCC 10231 and 752) and Candida kruzei were used. A cellular suspension of 1×10^6 UFC/mL was used, which has sown in 96-well plates. […] As controls were used: untreated yeasts (control of living cells), yeasts exposed to UV radiation (arrest, inhibition of proliferation), and yeasts exposed at temperature of 100° C. (dead yeasts). Cells were collected by centrifugation at 10,000×g for 10 min, they were washed once in phosphate buffer. […] of propidium iodide 0.1 mg/mL were added to the cell suspension. It was incubated during 30 minutes at room temperature and protected from light. Finally, the samples were analyzed by flow cytometry (Becton-Dickinson Facsc Calibur, laser argon 480 nm). The intrinsic parameters and fluorescence in the FL2 channel (yellow/orange fluorescence) for FUN and channel FL3 (red fluorescence, filter 630 nm) for propidium iodide were acquired and registered on a logarithmic scale for a minimum of 7500 events per sample. For data analysis, the quadrants were adjusted in a plot of data lines of fluorescence intensity of samples. […] These quadrants were used to quantify the percentile of cells showing altered fluorescence compared to drug-free controls.

Turning to `C[C@@H]1[C@H](O)[C@@H](C)/C=C/C=C/C=C/C=C/C=C/C=C/C=C/[C@H](O[C@@H]2O[C@H](C)[C@@H](O)[C@H](N)[C@@H]2O)C[C@@H]2O[C@](O)(C[C@@H](O)C[C@@H](O)[C@H](O)CC[C@@H](O)C[C@@H](O)CC(=O)O[C@H]1C)C[C@H](O)[C@H]2C(=O)O` [AmB, Amphotericin B], the IC50 was 200 nM.
